Structures are written as SMILES. Like-named read-outs stand apart in the source and are kept apart here. Bounds are passed on as bounds.

Consider 23 compounds from EP4707277A1, “NOVEL HETEROCYCLIC AMINE DERIVATIVES AND PHARMACEUTICAL COMPOSITION COMPRISING SAME” (Daewoong Pharmaceutical Co., Ltd., priority 2023, dated 2024).

The target of one experiment is T1, BTK (Homo sapiens, UniProt Q06187).
T1 construct: purchased Signalchem B10-10H
Description: Inhibitory activity against BTK, ADP-Glo Kinase system (Promega). The experiment is classed as biochemical. The method in brief: (§1)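 ADP-Glo luminescent ADP detection with recombinant human ITK (4 ng/reaction) or BTK (10 ng/reaction) and poly(Glu4,Tyr1) substrate at 0.2 µg/µl. Buffer: Tris pH 7.5, MgCl2, MnCl2, BSA, DTT. ATP 1 mM or Km (BTK 10 µM, ITK 25 µM); 1% DMSO; 1 h at 30°C; IC50 from curve fit.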
Background: In ADP-Glo the light output rises with the ADP produced.

For the next experiment, the target named is T2, ITK (Homo sapiens, UniProt Q08881).
T2 construct: purchased Signalchem I13-11G-10
T2 sequence (Q08881 1-620): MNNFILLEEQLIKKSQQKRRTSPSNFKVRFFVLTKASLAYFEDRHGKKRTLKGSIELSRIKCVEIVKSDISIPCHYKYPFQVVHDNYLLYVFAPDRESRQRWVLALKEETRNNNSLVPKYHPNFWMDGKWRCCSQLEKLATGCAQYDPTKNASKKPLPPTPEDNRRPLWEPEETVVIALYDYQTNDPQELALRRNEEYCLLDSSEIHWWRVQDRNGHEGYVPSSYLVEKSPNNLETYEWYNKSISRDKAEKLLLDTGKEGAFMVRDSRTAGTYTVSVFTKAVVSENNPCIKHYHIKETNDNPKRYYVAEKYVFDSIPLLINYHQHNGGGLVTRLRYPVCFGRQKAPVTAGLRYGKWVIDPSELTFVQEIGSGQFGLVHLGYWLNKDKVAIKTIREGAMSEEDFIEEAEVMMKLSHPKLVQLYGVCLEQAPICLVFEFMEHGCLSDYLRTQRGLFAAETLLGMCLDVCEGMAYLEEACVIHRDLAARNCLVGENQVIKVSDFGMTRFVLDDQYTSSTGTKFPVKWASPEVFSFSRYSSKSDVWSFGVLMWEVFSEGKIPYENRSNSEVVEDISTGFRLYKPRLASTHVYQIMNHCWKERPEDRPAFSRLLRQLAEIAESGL
Briefly: Inhibitory activity against ITK, ADP-Glo Kinase system (Promega). The experiment is classed as biochemical. The method in brief:
as §1

Setting [1] is: 1mM ATP, read-out: BTK IC50(nM) 1mM ATP.
The mark [2] stands for this setting: 1mM ATP, read-out: ITK IC50(nM) 1mM ATP.
Where [3] appears, read: Km ATP (BTK: 10 uM), read-out: BTK IC50(nM) Km ATP.
Setting [4] is: Km ATP (ITK: 25uM), read-out: ITK IC50(nM) Km ATP.

T1 sequence (Q06187 whole entry): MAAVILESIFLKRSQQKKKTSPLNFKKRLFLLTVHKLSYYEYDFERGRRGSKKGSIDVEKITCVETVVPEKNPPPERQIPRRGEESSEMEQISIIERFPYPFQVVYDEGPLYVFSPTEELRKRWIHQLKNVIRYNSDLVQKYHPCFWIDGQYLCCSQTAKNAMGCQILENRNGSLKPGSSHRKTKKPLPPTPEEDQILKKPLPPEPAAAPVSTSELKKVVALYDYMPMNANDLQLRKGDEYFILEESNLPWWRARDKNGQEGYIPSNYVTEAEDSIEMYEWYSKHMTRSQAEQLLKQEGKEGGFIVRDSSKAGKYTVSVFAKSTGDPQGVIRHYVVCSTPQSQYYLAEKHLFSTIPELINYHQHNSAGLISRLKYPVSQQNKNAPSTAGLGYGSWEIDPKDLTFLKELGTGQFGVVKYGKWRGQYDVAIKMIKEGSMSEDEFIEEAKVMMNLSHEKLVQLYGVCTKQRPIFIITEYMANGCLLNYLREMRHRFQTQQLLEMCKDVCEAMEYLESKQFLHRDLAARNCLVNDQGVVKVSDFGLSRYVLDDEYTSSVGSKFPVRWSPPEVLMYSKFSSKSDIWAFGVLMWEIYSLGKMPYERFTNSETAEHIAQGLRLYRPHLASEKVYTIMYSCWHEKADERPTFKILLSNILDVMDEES

Regarding `C=CC(=O)N1C[C@@H](Oc2nc(Nc3ncc(C)s3)cc3c2ccn3C2CCCC2)C[C@H]1C` [Example 100, 1-((2R,4S)-4-((1-cyclopentyl-6-((5-methylthiazol-2-yl)amino)-1H-pyrrolo[3,2-c]pyridin-4-yl)oxy)-2-methylpyrrolidin-1-yl)prop-2-en-1-one], the half-maximal inhibitory concentration (IC50) at BTK (setting [1]) and at ITK (setting [2]) was not above 20 nM each time.
For `C=CC(=O)N1CCC[C@@H]1COc1nc(Nc2ncc(C)s2)cc2c1ccn2CC(F)(F)F` [Example 207, (R)-1-(2-(((6-((5-methylthiazol-2-yl)amino)-1-(2,2,2-trifluoroethyl)-1H-pyrrolo[3,2-c]pyridin-4-yl)oxy)methyl)pyrrolidin-1-yl)prop-2-en-1-one], the IC50 at BTK (setting [1]) and at ITK (setting [2]) was not above 20 nM throughout.
In the case of `C=CC(=O)N1CC(Oc2nc(Nc3ncc(C)s3)cc3c2ccn3CCOC)C1` [Example 146, 1-(3-((1-(2-methoxyethyl)-6-((5-methylthiazol-2-yl)amino)-1H-pyrrolo[3,2-c]pyridin-4-yl)oxy)azetidin-1-yl)prop-2-en-1-one], the IC50 on BTK (setting [1]) and on ITK (setting [2]) was not above 20 nM each time.
As to `C=CC(=O)N1C[C@H](F)[C@H](Oc2nc(Nc3ncc(C)s3)cc3c2ccn3CCC)C1` [Example 159, 1-((3S,4R)-3-fluoro-4-((6-((5-methylthiazol-2-yl)amino)-1-propyl-1H-pyrrolo[3,2-c]pyridin-4-yl)oxy)pyrrolidin-1-yl)prop-2-en-1-one], the IC50 on BTK (setting [1]) and at ITK (setting [2]) was not above 20 nM in each case.
As for `C#CC(=O)N1CC[C@H](Oc2nc(Nc3ncc(C)s3)cc3c2ccn3CC(C)C)C1` [Example 225, (S)-1-(3-((1-isobutyl-6-((5-methylthiazol-2-yl)amino)-1H-pyrrolo[3,2-c]pyridin-4-yl)oxy)pyrrolidin-1-yl)prop-2-yn-1-one], the IC50 on BTK (setting [1]) and at ITK (setting [2]) was not above 20 nM each time.
For the compound `C=CC(=O)N1C2C=C(c3nc(Nc4ncc(C)s4)cc4c3ccn4C3CC3(F)F)CC1CC2` (centres unmarked) [Example 31, 1-(3-(1-(2,2-difluorocyclopropyl)-6-((5-methylthiazol-2-yl)amino)-1H-pyrrolo[3,2-c]pyridin-4-yl)-8-azabicyclo[3.2.1]oct-2-en-8-yl)prop-2-en-1-one], the IC50 at BTK (setting [3]) and on ITK (setting [4]) was not above 20 nM each time.
Take `C=CC(=O)N1C2C=C(c3nc(Nc4ncc(C)s4)cc4c3ccn4C(C)C)CC1CCC2` (centres unmarked) [Example 37, 1-(3-(1-isopropyl-6-((5-methylthiazol-2-yl)amino)-1H-pyrrolo[3,2-c]pyridin-4-yl)-9-azabicyclo[3.3.1]non-2-en-9-yl)prop-2-en-1-one]: the IC50 at BTK (setting [1]) and on ITK (setting [2]) was not above 20 nM in each case.
For `C=CC(=O)N1C[C@@H](OC)C[C@@H]1COc1nc(Nc2ncc(C)s2)cc2c1ccn2C(C)C` [Example 94, 1-((2R,4S)-2-(((1-isopropyl-6-((5-methylthiazol-2-yl)amino)-1H-pyrrolo[3,2-c]pyridin-4-yl)oxy)methyl)-4-methoxypyrrolidin-1-yl)prop-2-en-1-one], the IC50 on BTK (setting [1]) and on ITK (setting [2]) was not above 20 nM each time.
On to `C=CC(=O)N1C[C@@H](Oc2nc(Nc3ncc(C)s3)cc3c2ccn3C(C)C)C[C@@H]1C` [Example 88, 1-((2S,4S)-4-((1-isopropyl-6-((5-methylthiazol-2-yl)amino)-1H-pyrrolo[3,2-c]pyridin-4-yl)oxy)-2-methylpyrrolidin-1-yl)prop-2-en-1-one], for which the IC50 at BTK (setting [1]) and on ITK (setting [2]) was not above 20 nM each time.
As for `C=CC(=O)N1CC=C(c2nc(Nc3ncc(C)s3)cc3c2ccn3CC2CC2)CC1` [Example 4, 1-(4-(1-(cyclopropylmethyl)-6-((5-methylthiazol-2-yl)amino)-1H-pyrrolo[3,2-c]pyridin-4-yl)-3,6-dihydropyridin-1(2H)-yl)prop-2-en-1-one], the IC50 – broadly, the point on the concentration scale where inhibition reaches its midpoint – on BTK (setting [1]) is 20 to 100 nM; at BTK (setting [3]), not above 20 nM; at ITK (setting [2]), 20 to 100 nM; on ITK (setting [4]), not above 20 nM.
With `C=CC(=O)Nc1cc(-c2nc(Nc3ncc(C)s3)cc3c2ccn3CC2CCOC2)ccc1F` (centres unmarked) [Example 72, N-(2-fluoro-5-(6-((5-methylthiazol-2-yl)amino)-1-((tetrahydrofuran-3-yl)methyl)-1H-pyrrolo[3,2-c]pyridin-4-yl)phenyl)acrylamide], the IC50 on BTK (setting [3]) and at ITK (setting [4]) was not above 20 nM each time.
For the compound `C=CC(=O)N1CC[C@H](Oc2nc(Nc3ncc(C)s3)cc3c2ccn3CC(F)F)C1` [Example 206, (S)-1-(3-((1-(2,2-difluoroethyl)-6-((5-methylthiazol-2-yl)amino)-1H-pyrrolo[3,2-c]pyridin-4-yl)oxy)pyrrolidin-1-yl)prop-2-en-1-one], the IC50 at BTK (setting [1]) and on ITK (setting [2]) was not above 20 nM in each case.
In the case of `C=CC(=O)N1C2C=C(c3nc(Nc4ncc(C)s4)cc4c3ccn4C)CC1CC2` (centres unmarked) [Example 28, 1-(3-(1-methyl-6-((5-methylthiazol-2-yl)amino)-1H-pyrrolo[3,2-c]pyridin-4-yl)-8-azabicyclo[3.2.1]oct-2-en-8-yl)prop-2-en-1-one], the IC50 on BTK (setting [1]), at BTK (setting [3]), on ITK (setting [2]) and at ITK (setting [4]) was not above 20 nM throughout.
On to `C=CC(=O)N1CC=C(c2nc(Nc3ncc(C)s3)cc3c2ccn3CCc2ccccc2)CC1` [Example 16, 1-(4-(6-((5-methylthiazol-2-yl)amino)-1-phenethyl-1H-pyrrolo[3,2-c]pyridin-4-yl)-3,6-dihydropyridin-1(2H)-yl)prop-2-en-1-one], for which the IC50 on BTK (setting [3]) and on ITK (setting [4]) was not above 20 nM in each case.
As for `C=CC(=O)N1C[C@H](F)[C@H](Oc2nc(Nc3cc(C)[nH]n3)cc3c2ccn3CC(C)C)C1` [Example 196, 1-((3S,4R)-3-fluoro-4-((1-isobutyl-6-((5-methyl-1H-pyrazol-3-yl)amino)-1H-pyrrolo[3,2-c]pyridin-4-yl)oxy)pyrrolidin-1-yl)prop-2-en-1-one], the IC50 at BTK (setting [1]) and on ITK (setting [2]) was 20 to 100 nM each time.
As for `C=CC(=O)Nc1cccc(-c2nc(Nc3ncc(C)s3)cc3c2ccn3CC2CCOCC2)c1F` [Example 73, N-(2-fluoro-3-(6-((5-methylthiazol-2-yl)amino)-1-((tetrahydro-2H-pyran-4-yl)methyl)-1H-pyrrolo[3,2-c]pyridin-4-yl)phenyl)acrylamide], the IC50 at BTK (setting [3]) and at ITK (setting [4]) was not above 20 nM throughout.
As to `C=CC(=O)N1CCCC12CC(Oc1nc(Nc3ncc(C)s3)cc3c1ccn3CC(C)C)C2` (centres unmarked) [Example 200, 1-(2-((1-isobutyl-6-((5-methylthiazol-2-yl)amino)-1H-pyrrolo[3,2-c]pyridin-4-yl)oxy)-5-azaspiro[3.4]octan-5-yl)prop-2-en-1-one], the 50% inhibitory concentration (IC50) on BTK (setting [1]) fell in the range of 20 to 100 nM; at ITK (setting [2]) it was 100 to 500 nM.
In the same order, the values of `C=CC(=O)N1CC[C@@H](Oc2nc(Nc3ncc(C)s3)cc3c2ccn3C(C)C)C1` [Example 162, (R)-1-(3-((1-isopropyl-6-((5-methylthiazol-2-yl)amino)-1H-pyrrolo[3,2-c]pyridin-4-yl)oxy)pyrrolidin-1-yl)prop-2-en-1-one] are more than 500 nM and more than 500 nM.
In the same order, the values of `C=CC(=O)N1CC[C@H](Oc2nc(Nc3ncc(C)s3)cc3c2ccn3CCF)C1` [Example 188, (S)-1-(3-((1-(2-fluoroethyl)-6-((5-methylthiazol-2-yl)amino)-1H-pyrrolo[3,2-c]pyridin-4-yl)oxy)pyrrolidin-1-yl)prop-2-en-1-one] are not above 20 nM and not above 20 nM.
As to `C=CC(=O)Nc1cccc(-c2nc(Nc3ncc(C)s3)cc3c2ccn3C)c1` [Example 50, N-(3-(1-methyl-6-((5-methylthiazol-2-yl)amino)-1H-pyrrolo[3,2-c]pyridin-4-yl)phenyl)acrylamide], the IC50 on BTK (setting [3]) was not above 20 nM; at ITK (setting [4]) it was 20 to 100 nM.
Turning to `C=CC(=O)N1CC[C@H](Oc2nc(Nc3ncc(C)s3)cc3c2ccn3CC2CCCC2)C1` [Example 128, (S)-1-(3-((1-(cyclopentylmethyl)-6-((5-methylthiazol-2-yl)amino)-1H-pyrrolo[3,2-c]pyridin-4-yl)oxy)pyrrolidin-1-yl)prop-2-en-1-one], the IC50 on BTK (setting [1]) and at ITK (setting [2]) was not above 20 nM throughout.
Consider `C=CC(=O)N1CC[C@H]1COc1nc(Nc2ncc(C)s2)cc2c1ccn2C(C)C` [Example 86, (S)-1-(2-(((1-isopropyl-6-((5-methylthiazol-2-yl)amino)-1H-pyrrolo[3,2-c]pyridin-4-yl)oxy)methyl)azetidin-1-yl)prop-2-en-1-one], for which the results for the IC50 on BTK (setting [1]) and on ITK (setting [2]) were not above 20 nM and 20 to 100 nM, respectively.
For `C=CC(=O)Nc1cccc(-c2nc(Nc3ncc(C)s3)cc3c2ccn3C(C)C)c1C` [Example 58, N-(3-(1-isopropyl-6-((5-methylthiazol-2-yl)amino)-1H-pyrrolo[3,2-c]pyridin-4-yl)-2-methylphenyl)acrylamide], in that order: not above 20 nM and not above 20 nM.
